From publication PMC11941218, “Juglone-Bearing Thiopyrano[2,3-d]thiazoles Induce Apoptosis in Colorectal Adenocarcinoma Cells” (Cells, 2025)

Experiments:
[1] = test system: Balb/c 3T3 (mouse fibroblasts); assay: MTT assay; type: cell-based; conditions: BALB/c3T3, Balb/c 3T3, MTT, 72 h, M ± SD, n = 3
Procedure: (§1) DLD-1, HaCaT, and Balb/c 3T3 cells were maintained in DMEM, while HT-29 cells were grown in McCoy’s 5A medium with 10% FBS and 1% penicillin/streptomycin. All cell lines were incubated at 37 °C in a humidified atmosphere with 5% CO2. After detaching the cells with trypsin, they were quantified using a Scepter 3.0 automated cell counter (Millipore, Burlington, MA, USA).
(§2) The metabolic activity of cells exposed to the tested derivatives, doxorubicin, and DMSO, was assessed using an MTT assay according to the manufacturer’s protocol (Sigma-Aldrich, St. Louis, MO, USA). Adherent cells were seeded into 96-well plates (5000–10,000 cells in 100 µL of growth medium per well) and allowed to adhere overnight before treatment. For lymphocytes, activation with phytohemagglutinin-L (1 µg/mL) was performed for 24 h, after which they were seeded in 96-well plates at a density of 100,000 cells/well in RPMI-1640 medium supplemented with 20% FBS. The test substances, including Les-6547, Les-6557, and doxorubicin, were added to 100 µL of culture medium to achieve final concentrations of 0 µM, 0.1 µM, 1 µM, 2.5 µM, 10 µM, and 100 µM for all compounds, and the cells were further incubated for 24, 48, or 72 h. DMSO-treated cells served as the control. Then, 20 µL of MTT solution (5 mg/mL) was added and incubated for 2–4 h to allow formazan crystal formation. The formazan crystals were then solubilized by adding DMSO. The absorbance of formazan was measured at 570 nm using a ThermoScientific Evolution 201 UV-VIS spectrophotometer (ThermoFisher Scientific, Waltham, MA, USA). The control condition with 0.5% DMSO was considered 100% viability. The IC50 values for the compounds were determined using GraphPad Prism 8 and 9 software (GraphPad Software, Boston, MA, USA).

[2] = test system: HT-29 colorectal adenocarcinoma cells; assay: MTT assay; type: cell-based; conditions: Homo sapiens, HT-29, MTT, M ± SD, n = 3, read-out: IC50
Procedure: as §1, §2

[3] = test system: HaCaT (human keratinocytes); assay: MTT assay; type: cell-based; conditions: 72 h, M ± SD, n = 3
Procedure: as §1, §2

[4] = test system: DLD-1 colorectal adenocarcinoma cells; assay: MTT assay; type: cell-based, human; conditions: Homo sapiens, DLD-1, MTT, M ± SD, n = 3, read-out: IC50
Procedure: as §1, §2

Human blood lymphocytes = assay: MTT assay; type: cell-based; conditions: Lymphocyte, human blood lymphocytes, 72 h, M ± SD, n = 3
Procedure: Lymphocytes from human peripheral blood were isolated with sodium heparin (10 U/mL) as an anticoagulant. Isolation was performed through a density gradient method with the Gradisol G, following a modified procedure. Peripheral blood was mixed with Gradisol G in equal proportions (1:1) and centrifuged at 400× g for 30 min at room temperature. The cells were collected, washed in phosphate-buffered saline (PBS), and treated with a hypotonic solution to remove residual erythrocytes. Lymphocytes were activated by phytohemagglutinin-L (1 µg/mL) and cultured in RPMI-1640 medium supplemented with 20% fetal bovine serum under controlled conditions of 95% air and 5% CO2 [27].
as §2

[5] = test system: DLD-1 colorectal adenocarcinoma cells; assay: Colony forming (clonogenic) assay; type: cell-based, human
Procedure: (§3) For colony forming assay, HT-29 and DLD-1 cells were seeded in 12-well plates at a density of 500 cells in 2 mL of growth medium per well. After overnight incubation, the cells were exposed to the compounds Les-6547, Les-6557, and doxorubicin at concentrations ranging from 0.1 to 100 µM for 72 h. Following treatment, the medium was replaced with fresh medium without the compounds. After 14 days of culture, cells were rinsed with PBS and fixed with cold methanol for 10 min. Subsequently, the cells were stained with a 0.1% crystal violet solution for 10 min. After washing, the plates were allowed to dry at room temperature. Numbers of colonies were quantified using ImageJ software (version 1.5.4; National Institutes of Health, Bethesda, MD, USA). The effect of the compounds on the colony-forming capacity was calculated as a percentage of colonies relative to the untreated control group.

[6] = test system: HT-29 colorectal adenocarcinoma cells; assay: Colony forming (clonogenic) assay; type: cell-based, human; conditions: Homo sapiens
Procedure: as §3

[7] = test system: DLD-1 colorectal adenocarcinoma cells; assay: [^3H]-thymidine incorporation assay (DNA biosynthesis); type: cell-based; conditions: Homo sapiens; DLD-1, 24 h, M ± SD, n = 3
Procedure: (§4) The anti-proliferative potential of Les-6547 and Les-6557 was analyzed using a clonogenic assay and incorporation of radioactive [^3H]-thymidine into the DNA of colorectal adenocarcinoma HT-29 and DLD-1 cell lines after 24 h of incubation with various concentrations of the tested agents.
(§5) Next, we examined the effects of the tested compounds on the proliferative activity of human colorectal adenocarcinoma cells by assessing their ability to influence DNA biosynthesis using the thymidine incorporation assay (Figure 6, Table 8). Les-6547 decreased DNA biosynthesis in DLD-1 cells to 50% at a concentration of 2.19 ± 0.39 µM.

[8] = test system: HT-29 colorectal adenocarcinoma cells; assay: as above; type: cell-based; conditions: Homo sapiens; HT-29, 24 h, M ± SD, n = 3
Procedure: as §4, §5

Question: How did the IC50 [1] turn out when COc1cccc2c1C(=O)c1c(O)c3c(c(O)c1C2=O)C[C@@](O)(C(=O)CO)C[C@@H]3O[C@H]1C[C@H](N)[C@H](O)[C@H](C)O1 [Doxorubicin, doxorubicin, reference compound] was run?
Answer: 560 ± 110 nM

Question: What about the IC50 ([2]; 24 h) of the same compound?
Answer: 17000 ± 880 nM

Question: What about the IC50 ([2]; 48 h) of the same compound?
Answer: 1550 ± 140 nM

Question: What about the IC50 ([2]; 72 h) of the same compound?
Answer: 2110 ± 60 nM

Question: And the IC50 [3]?
Answer: 900 ± 100 nM

Question: And the IC50 ([4]; 24 h)?
Answer: 65300 ± 6080 nM

Question: And the IC50 ([4]; 48 h)?
Answer: 2010 ± 90 nM

Question: What about the IC50 ([4]; 72 h) of the same compound?
Answer: 760 ± 100 nM

Question: And the IC50 (Human blood lymphocytes)?
Answer: 710 ± 110 nM

Question: And the colony growth ([5]; DLD-1, 10 µM)?
Answer: 3.86%

Question: What about the IC50 ([5]; Homo sapiens, DLD-1, 72 h treatment, 14 days of incubation, M ± SD, n = 3) of the same compound?
Answer: 3230 ± 50 nM

Question: And the inhibition at 1 µM ([6]; HT-29, 1 µM, read-out: inhibition of colony formation)?
Answer: 100%

Question: And the IC50 ([6]; HT-29, 72 h treatment, 14 days of incubation, n = 3)?
Answer: ~500 nM

Question: What about the IC50 [7] of the same compound?
Answer: 6390 ± 20 nM

Question: And the IC50 [8]?
Answer: 4720 ± 800 nM
